Entries after “also recorded” stand apart in the source; their conditions may differ.
What was measured:
[1] = test system: tyrosine aminotransferase (TAT) in HTC cells; type: cell-based, rat
[2] = biological target: T1, glucocorticoid receptor (GR) (Rattus norvegicus, UniProt P06536); type: cell-based
T1 construct: expressed in transfected cells; host or cells: Cos7
T1 sequence (P06536 1-795): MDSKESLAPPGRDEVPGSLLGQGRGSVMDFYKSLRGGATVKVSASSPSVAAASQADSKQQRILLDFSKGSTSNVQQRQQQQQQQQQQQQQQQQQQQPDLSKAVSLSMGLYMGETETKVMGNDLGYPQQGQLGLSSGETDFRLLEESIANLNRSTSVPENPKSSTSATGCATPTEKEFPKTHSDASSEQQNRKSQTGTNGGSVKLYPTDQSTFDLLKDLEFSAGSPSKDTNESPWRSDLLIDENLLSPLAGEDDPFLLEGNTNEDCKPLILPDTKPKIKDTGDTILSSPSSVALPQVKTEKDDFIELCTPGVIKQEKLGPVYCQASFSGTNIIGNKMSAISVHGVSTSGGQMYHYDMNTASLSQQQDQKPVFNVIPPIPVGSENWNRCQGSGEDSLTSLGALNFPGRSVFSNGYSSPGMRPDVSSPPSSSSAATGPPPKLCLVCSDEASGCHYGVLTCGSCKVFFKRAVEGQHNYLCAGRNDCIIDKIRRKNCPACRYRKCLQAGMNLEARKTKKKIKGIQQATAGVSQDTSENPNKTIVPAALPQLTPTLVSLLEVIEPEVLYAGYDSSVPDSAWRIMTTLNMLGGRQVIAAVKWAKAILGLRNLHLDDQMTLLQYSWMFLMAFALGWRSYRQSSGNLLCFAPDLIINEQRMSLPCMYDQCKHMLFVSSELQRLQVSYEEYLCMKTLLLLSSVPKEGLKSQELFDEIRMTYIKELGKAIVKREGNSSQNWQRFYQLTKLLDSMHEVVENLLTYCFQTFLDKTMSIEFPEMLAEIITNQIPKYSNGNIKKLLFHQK

[3] = test system: constitutive luciferase vector, pGL3 control; type: cell-based
[4] = test system: Raw264.7 cells; type: cell-based
[5] = test system: J774.1 cells; type: cell-based
[6] = biological target: T2, progesterone receptor B (PR-B) (Homo sapiens, UniProt P06401); settings: 100 nM progesterone; 2 ng/ml LF+500 ng/ml PA; RU486 up to 1 μM; pLTR luc
T2 sequence (P06401 1-933): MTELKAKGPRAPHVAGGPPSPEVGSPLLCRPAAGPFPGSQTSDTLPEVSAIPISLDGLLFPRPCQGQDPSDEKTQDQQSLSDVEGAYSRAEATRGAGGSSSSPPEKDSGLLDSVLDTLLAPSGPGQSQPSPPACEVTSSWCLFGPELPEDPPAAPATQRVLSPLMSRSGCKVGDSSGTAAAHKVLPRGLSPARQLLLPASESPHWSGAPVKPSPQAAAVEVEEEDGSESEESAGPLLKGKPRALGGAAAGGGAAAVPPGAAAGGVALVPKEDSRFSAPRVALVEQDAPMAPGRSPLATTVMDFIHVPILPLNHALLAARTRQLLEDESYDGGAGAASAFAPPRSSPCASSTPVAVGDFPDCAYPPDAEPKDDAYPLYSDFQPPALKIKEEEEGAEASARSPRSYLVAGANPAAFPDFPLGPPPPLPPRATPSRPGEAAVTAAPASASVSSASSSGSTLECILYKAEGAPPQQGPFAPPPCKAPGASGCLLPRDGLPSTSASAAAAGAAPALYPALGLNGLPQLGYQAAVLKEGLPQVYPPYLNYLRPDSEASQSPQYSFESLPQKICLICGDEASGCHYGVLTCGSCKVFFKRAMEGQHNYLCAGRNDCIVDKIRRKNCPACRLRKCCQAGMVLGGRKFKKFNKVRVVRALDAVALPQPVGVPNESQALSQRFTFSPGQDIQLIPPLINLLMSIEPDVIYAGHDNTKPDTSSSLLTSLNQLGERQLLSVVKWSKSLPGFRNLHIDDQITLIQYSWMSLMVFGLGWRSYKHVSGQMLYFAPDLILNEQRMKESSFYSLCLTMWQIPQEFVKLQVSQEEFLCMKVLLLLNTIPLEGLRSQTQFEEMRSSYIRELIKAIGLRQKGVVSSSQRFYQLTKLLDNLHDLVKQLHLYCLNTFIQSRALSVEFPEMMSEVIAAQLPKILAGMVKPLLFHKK

[7] = biological target: T1, glucocorticoid receptor (GR); type: binding

**Q.** Which results are given for `COc1cccc(-c2cc(=O)c3ccccc3o2)c1N` [PD98059]?
**A.** effect of MAPK inhibitor on dexamethasone-induced TAT activity [1]: repress dexamethasone-induced TAT activity; GR/GRE-specific effect of MAPK pathway inhibitor on Dex-induced GR transactivation [2]: does not affect GR transactivation; also recorded: no GRE specific effect; also recorded: did not alter GR repression; also recorded: does not have any GR specific effect; effect on GRE-luciferase activity [2]: decreased luciferase activity; effect on constitutive luciferase (pGL3 control) [3]: decreased luciferase activity; also recorded: non-specific suppressive effect on luciferase

**Q.** With `COc1ccc(C2CNC(=O)C2)cc1OC1CCCC1` (centres unmarked) [rolipram] as the molecule, how does the “effect on LeTx repression of dexamethasone-induced TAT activity” value [1] read?
**A.** does not prevent LeTx repression

**Q.** And the “effect of rolipram on LeTx toxicity” value [4]?
**A.** does not prevent LeTx toxicity

**Q.** How did the “effect of MAPK inhibitor on dexamethasone-induced TAT activity” value [1] turn out when `Nc1nccc(-c2c(-c3ccc(F)cc3)ncn2C2CCNCC2)n1` [SB220025] was run?
**A.** repress dexamethasone-induced TAT activity

**Q.** Which results are given for `C[C@@H]1C[C@H]2[C@@H]3CCC4=CC(=O)C=C[C@]4(C)[C@@]3(F)[C@@H](O)C[C@]2(C)[C@@]1(O)C(=O)CO` [Dex, dexamethasone]?
**A.** Dex concentration as low as which TAT is induced [1]: 10 nM; induction of TAT activity [1]: approximately 10 fold

**Q.** What does the source list for `CC#C[C@]1(O)CC[C@H]2[C@@H]3CCC4=CC(=O)CCC4=C3[C@@H](c3ccc(N(C)C)cc3)C[C@@]21C` [RU 486, mifepristone]?
**A.** effect of pretreatment on LeTx toxicity [5]: does not prevent LeTx toxicity; mode of GR repression / antagonism [2]: competitive antagonist; repression of Dex-induced GR transactivation in the presence of LeTx [2]: fully repressed; also recorded: fully repress; repression of progesterone-induced PR-B transactivation in the presence of LeTx [6]: fully repress; competition with [3H] dexamethasone for binding to GR [7]: can compete; effect of pretreatment on LeTx toxicity [4]: does not prevent LeTx toxicity

**Q.** Which “effect of MAPK inhibitor on dexamethasone-induced TAT activity” value [1] does the source give for `C[S+]([O-])c1ccc(-c2nc(-c3ccncc3)c(-c3ccc(F)cc3)[nH]2)cc1` (centres unmarked) [SB203580] here?
**A.** repress dexamethasone-induced TAT activity

**Q.** And the “GR/GRE-specific effect of MAPK pathway inhibitor on Dex-induced GR transactivation” value [2]?
**A.** has no effect on GR-mediated transactivation

From US20060035813A1, “Methods and formulations comprising agonists and antagonists of nuclear hormone receptors” (priority 2002, published 2006)
